Data: patent US11932624B2, “MDM2 degraders and uses thereof” (Kymera Therapeutics, Inc., priority 2020, dated 2024)
pIC50: −log10 of the molar value.

Test system: RS411 cells
Experiment: Cell Viability CTG Assay (CellTiter Glo) in RS411 cells
Assay type: cell-based
Conditions: Homo sapiens, RS4-11, 24 h, duration 1 day
How it was run: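 RS411 cells at 1000 cells/well were exposed to compound (top final 10 μM, 3-fold, 11 doses; 0.2% DMSO) at 37 °C, 5% CO2 for 1-4 days. Viability was read by CellTiter Glo luminescence after 10 min at RT. IC50 is reported as letter-code bins.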

Row | SMILES | pIC50
1 | Cn1c(=O)n(C2CCC(=O)NC2=O)c2ccc(CCCCCNC(=O)[C@@H]3CC[C@@H](NC(=O)[C@@H]4NC5(CCC(C)(C)CC5)[C@@]5(C(=O)Nc6cc(Cl)ccc65)[C@H]4c4cccc(Cl)c4F)CO3)cc21 (some centres unmarked) [I-98] | > 7.30
2 | CN(CCCCCc1ccc2c(c1)n(C)c(=O)n2C1CCC(=O)NC1=O)Cc1ccc(NC(=O)[C@@H]2NC3(CCCCC3)[C@@]3(C(=O)Nc4cc(Cl)ccc43)[C@H]2c2cccc(Cl)c2F)cc1 (some centres unmarked) [I-99] | > 7.30
3 | Cn1c(=O)n(C2CCC(=O)NC2=O)c2cccc(C3CCN(C[C@H]4CC[C@H](NC(=O)[C@@H]5NC6(CCC(C)(C)CC6)[C@@]6(C(=O)Nc7cc(Cl)ccc76)[C@H]5c5cccc(Cl)c5F)CC4)CC3)c21 (some centres unmarked) [I-103] | > 7.30
4 | O=C1CCN(c2cnc3cc(C#CCOC4CCN(C(=O)c5ccc(NC(=O)[C@@H]6NC7(CCCCC7)[C@@]7(C(=O)Nc8cc(Cl)ccc87)[C@H]6c6cccc(Cl)c6F)cc5)CC4)ccn23)C(=O)N1 [I-106] | > 7.30
5 | Cn1c(=O)n(C2CCC(=O)NC2=O)c2cccc(CN3CCC(OC4CCN(C[C@H]5CC[C@H](NC(=O)[C@@H]6NC7(CCC(C)(C)CC7)[C@@]7(C(=O)Nc8cc(Cl)ccc87)[C@H]6c6cccc(Cl)c6F)CC5)CC4)CC3)c21 (some centres unmarked) [I-111] | > 7.30
6 | Cn1c(=O)n(C2CCC(=O)NC2=O)c2cccc(CN3CCC(OC4CCN(C[C@H]5CC[C@H](NC(=O)[C@@H]6NC7(CCCCC7)[C@@]7(C(=O)Nc8cc(Cl)ccc87)[C@H]6c6cccc(Cl)c6F)CC5)CC4)CC3)c21 (some centres unmarked) [I-113] | > 7.30
7 | Cn1c(=O)n(C2CCC(=O)NC2=O)c2cccc(C3CCN(Cc4ccc(NC(=O)[C@@H]5NC6(CCCCC6)[C@@]6(C(=O)Nc7cc(Cl)ccc76)[C@H]5c5cccc(Cl)c5F)cc4)CC3)c21 (some centres unmarked) [I-115] | > 7.30
8 | Cn1c(=O)n(C2CCC(=O)NC2=O)c2cccc(/C=C/C3CCN(C[C@H]4CC[C@H](CNC(=O)[C@@H]5NC6(CCCCC6)[C@@]6(C(=O)Nc7cc(Cl)ccc76)[C@H]5c5cccc(Cl)c5F)CC4)CC3)c21 (some centres unmarked) [I-118] | 7.00 to 7.30
9 | O=C1CCN(c2cnc3cc(C#CC4CCN(C[C@H]5CC[C@H](NC(=O)[C@@H]6NC7(CCCCC7)[C@@]7(C(=O)Nc8cc(Cl)ccc87)[C@H]6c6cccc(Cl)c6F)CC5)CC4)ccn23)C(=O)N1 [I-119] | > 7.30
10 | Cn1c(=O)n(C2CCC(=O)NC2=O)c2ccc(CCCN3CCN(Cc4ccc(NC(=O)[C@@H]5NC6(CCCCC6)[C@@]6(C(=O)Nc7cc(Cl)ccc76)[C@H]5c5cccc(Cl)c5F)cc4)CC3)cc21 (some centres unmarked) [I-121] | > 7.30
11 | Cn1c(=O)n(C2CCC(=O)NC2=O)c2ccc(CCCCCNCc3ccc(NC(=O)[C@@H]4NC5(CCCCC5)[C@@]5(C(=O)Nc6cc(Cl)ccc65)[C@H]4c4cccc(Cl)c4F)cc3)cc21 (some centres unmarked) [I-126] | > 7.30
12 | C#CCCCCCCCC1N(c2ccc(C(=O)NC)cc2OC)C(=O)[C@H]2[C@H](c3cccc(Cl)c3F)[C@@](C#N)(c3ccc(Cl)cc3F)[C@H](CC(C)(C)C)N12 (stereo partly drawn) [I-127, 4-[(5S,6R,7S,7aR)-7-(3-chloro-2-fluoro-phenyl)-6-(4-chloro-2-fluoro-phenyl)-6-cyano-5-(2,2-dimethylpropyl)-3-non-8-ynyl-1-oxo-3,5,7,7a-tetrahydropyrrolo[1,2-c]imidazol-2-yl]-3-methoxy-N-methyl-benzamide] | < 6.00
13 | C#CCCCCCCCN1C(=O)[C@@]2(c3ccc(Cl)cc31)[C@@H](c1cccc(Cl)c1F)[C@H](C(=O)N[C@H]1C[C@@](C)(O)C1)N(C)C21CCCCC1 [I-128, (3′R,4'S,5′R)-6″-chloro-4′-(3-chloro-2-fluorophenyl)-N-((1s,3S)-3-hydroxy-3-methylcyclobutyl)-1′-methyl-1″-(non-8-yn-1-yl)-2″-oxodispiro[cyclohexane-1,2′-pyrrolidine-3′,3″-indoline]-5′-carboxamide] | < 6.00
14 | C#CCCCCCCCN1C(=O)[C@@]2(c3ccc(Cl)cc31)[C@@H](c1cccc(Cl)c1F)[C@H](C(=O)O)N(C)C21CCCCC1 [I-129, (3′R,4'S,5′R)-6″-chloro-4′-(3-chloro-2-fluorophenyl)-1′-methyl-1″-(non-8-yn-1-yl)-2″-oxodispiro[cyclohexane-1,2′-pyrrolidine-3′,3″-indoline]-5′-carboxylic acid] | < 6.00
15 | CC(C)(C)C[C@@H]1N[C@@H](C(=O)N[C@H]2CC[C@H](CN3CCC(C#Cc4ccn5c(N6CCC(=O)NC6=O)cnc5c4)CC3)CC2)[C@H](c2cccc(Cl)c2F)[C@@]1(C#N)c1ccc(Cl)cc1F [I-135] | < 6.00

Results, then the molecule that gave them:

Row | pIC50 | SMILES
16 | > 7.30 | Cn1c(=O)n(C2CCC(=O)NC2=O)c2ccc(C#CC3CN(C(=O)[C@H]4C[C@H](NC(=O)[C@@H]5NC6(CCC(C)(C)CC6)[C@@]6(C(=O)Nc7cc(Cl)ccc76)[C@H]5c5cccc(Cl)c5F)C4)C3)cc21 (some centres unmarked) [I-100]
17 | > 7.30 | CN1[C@@H](C(=O)Nc2ccc(C(=O)NCCCCCc3ccc4c(c3)n(C)c(=O)n4C3CCC(=O)NC3=O)cc2)[C@H](c2cccc(Cl)c2F)[C@]2(C(=O)Nc3cc(Cl)ccc32)C12CCCCC2 (some centres unmarked) [I-101]
18 | > 7.30 | Cn1c(=O)n(C2CCC(=O)NC2=O)c2ccc(CCC3CCN(Cc4ccc(NC(=O)[C@@H]5NC6(CCCCC6)[C@@]6(C(=O)Nc7cc(Cl)ccc76)[C@H]5c5cccc(Cl)c5F)cc4)CC3)cc21 (some centres unmarked) [I-102]
19 | < 6.00 | Cn1c(=O)n(C2CCC(=O)NC2=O)c2ccc(CCCCCNC(=O)[C@H]3CC[C@H](N(C)C(=O)[C@@H]4NC5(CCCCC5)[C@@]5(C(=O)Nc6cc(Cl)ccc65)[C@H]4c4cccc(Cl)c4F)CC3)cc21 (some centres unmarked) [I-105]
20 | > 7.30 | Cn1c(=O)n(C2CCC(=O)NC2=O)c2cccc(C3CCN(C[C@H]4CC[C@H](NC(=O)[C@@H]5NC6(CCCCC6)[C@@]6(C(=O)Nc7cc(Cl)ccc76)[C@H]5c5cccc(Cl)c5F)CC4)CC3)c21 (some centres unmarked) [I-109]
21 | > 7.30 | Cn1c(=O)n(C2CCC(=O)NC2=O)c2ccc(C#CCN3CCN(Cc4ccc(NC(=O)[C@@H]5NC6(CCCCC6)[C@@]6(C(=O)Nc7cc(Cl)ccc76)[C@H]5c5cccc(Cl)c5F)cc4)CC3)cc21 (some centres unmarked) [I-110]
22 | > 7.30 | Cn1c(=O)n(C2CCC(=O)NC2=O)c2cccc(CCC3CC4(CCN(C[C@H]5CC[C@H](NC(=O)[C@@H]6NC7(CCCCC7)[C@@]7(C(=O)Nc8cc(Cl)ccc87)[C@H]6c6cccc(Cl)c6F)CC5)CC4)C3)c21 (some centres unmarked) [I-112]
23 | > 7.30 | Cn1c(=O)n(C2CCC(=O)NC2=O)c2ccc(CCCN3CCN(C[C@H]4CC[C@H](NC(=O)[C@@H]5NC6(CCCCC6)[C@@]6(C(=O)Nc7cc(Cl)ccc76)[C@H]5c5cccc(Cl)c5F)CC4)CC3)cc21 (some centres unmarked) [I-114]
24 | < 6.00 | Cn1c(=O)n(C2CCC(=O)NC2=O)c2cccc(C#CC3CCN(Cc4ccc(CNC(=O)[C@@H]5NC6(CCCCC6)[C@@]6(C(=O)Nc7cc(Cl)ccc76)[C@H]5c5cccc(Cl)c5F)cc4)CC3)c21 (some centres unmarked) [I-116]
25 | > 7.30 | Cn1c(=O)n(C2CCC(=O)NC2=O)c2ccc(CN3CCC(OC4CCN(C[C@H]5CC[C@H](NC(=O)[C@@H]6NC7(CCCCC7)[C@@]7(C(=O)Nc8cc(Cl)ccc87)[C@H]6c6cccc(Cl)c6F)CC5)CC4)CC3)cc21 (some centres unmarked) [I-117]
26 | < 6.00 | Cn1c(=O)n(C2CCC(=O)NC2=O)c2ccc(C#CCCCNC(=O)[C@H]3CC[C@H](N(C)C(=O)[C@@H]4NC5(CCCCC5)[C@@]5(C(=O)Nc6cc(Cl)ccc65)[C@H]4c4cccc(Cl)c4F)CC3)cc21 (some centres unmarked) [I-120]
27 | > 7.30 | Cn1c(=O)n(C2CCC(=O)NC2=O)c2ccc(C#CC3CN(C[C@H]4C[C@H](NC(=O)[C@@H]5NC6(CCC(C)(C)CC6)[C@@]6(C(=O)Nc7cc(Cl)ccc76)[C@H]5c5cccc(Cl)c5F)C4)C3)cc21 (some centres unmarked) [I-122]
28 | > 7.30 | CN1[C@@H](C(=O)N[C@H]2CC[C@H](CN3CCC(C#Cc4ccc5c(c4)n(C)c(=O)n5C4CCC(=O)NC4=O)CC3)CC2)[C@H](c2cccc(Cl)c2F)[C@]2(C(=O)Nc3cc(Cl)ccc32)C12CCC(C)(C)CC2 (some centres unmarked) [I-123]
29 | < 6.00 | CN1[C@@H](C(=O)N[C@H]2C[C@@](C)(O)C2)[C@H](c2cccc(Cl)c2F)[C@]2(C(=O)N(CCCCCCCC#Cc3ccc4c(c3)n(C)c(=O)n4C3CCC(=O)NC3=O)c3cc(Cl)ccc32)C12CCCCC2 (some centres unmarked) [I-124]
30 | > 7.30 | Cn1c(=O)n(C2CCC(=O)NC2=O)c2ccc(CCCCCNC[C@H]3CC[C@H](NC(=O)[C@@H]4NC5(CCCCC5)[C@@]5(C(=O)Nc6cc(Cl)ccc65)[C@H]4c4cccc(Cl)c4F)CC3)cc21 (some centres unmarked) [I-125]
31 | > 7.30 | CN1[C@@H](C(=O)NC23CCC(C(=O)N4CCC(C#Cc5ccc6c(c5)n(C)c(=O)n6C5CCC(=O)NC5=O)CC4)(CC2)CC3)[C@H](c2cccc(Cl)c2F)[C@]2(C(=O)Nc3cc(Cl)ccc32)C12CCCCC2 (stereo partly drawn) [I-130, (3′R,4'S,5′R)-6″-chloro-4′-(3-chloro-2-fluorophenyl)-N-(4-(4-((1-(2,6-dioxopiperidin-3-yl)-3-methyl-2-oxo-2,3-dihydro-1H-benzo[d]imidazol-5-yl)ethynyl)piperidine-1-carbonyl)bicyclo[2.2.2]octan-1-yl)-1′-methyl-2″-oxodispiro[cyclohexane-1,2′-pyrrolidine-3′,3″-indoline]-5′-carboxamide]
32 | 7.00 to 7.30 | CCN1[C@@H](C(=O)NC23CCC(CN(C)CCCCCc4ccc5c(c4)n(C)c(=O)n5C4CCC(=O)NC4=O)(CC2)CC3)[C@H](c2cccc(Cl)c2F)[C@]2(C(=O)Nc3cc(Cl)ccc32)C12CCCCC2 (stereo partly drawn) [I-131, (3′R,4'S,5′R)-6″-chloro-4′-(3-chloro-2-fluorophenyl)-N-(4-(((5-(1-(2,6-dioxopiperidin-3-yl)-3-methyl-2-oxo-2,3-dihydro-1H-benzo[d]imidazol-5-yl)pentyl)(methyl)amino)methyl)bicyclo[2.2.2]octan-1-yl)-1′-ethyl-2″-oxodispiro[cyclohexane-1,2′-pyrrolidine-3′,3″-indoline]-5′-carboxamide]
33 | > 7.30 | O=C1CCC(N2Cc3c(C#CC4CCN(C(=O)[C@H]5CC[C@H](NC(=O)[C@@H]6NC7(CCCCC7)[C@@]7(C(=O)Nc8cc(Cl)ccc87)[C@H]6c6cccc(Cl)c6F)CC5)CC4)cccc3C2=O)C(=O)N1 (some centres unmarked) [I-134]
34 | > 7.30 | Cn1c(=O)n(C2CCC(=O)NC2=O)c2ccc(C#CCCN3CCN(C(=O)[C@H]4CC[C@H](NC(=O)[C@@H]5NC6(CCCCC6)[C@@]6(C(=O)Nc7cc(Cl)ccc76)[C@H]5c5cccc(Cl)c5F)CC4)CC3)cc21 (some centres unmarked) [I-136]
35 | > 7.30 | Cn1c(=O)n(C2CCC(=O)NC2=O)c2cccc(C3CCN(C(=O)[C@H]4CC[C@H](NC(=O)[C@@H]5NC6(CCC(C)(C)CC6)[C@@]6(C(=O)Nc7cc(Cl)ccc76)[C@H]5c5cccc(Cl)c5F)CC4)CC3)c21 (some centres unmarked) [I-137]
